This assay addresses BaF3(Bcr-Abl) T315M (Homo sapiens, UniProt P00519, T315M, cells depend on it). The following applies: read-out: Anti-proliferation (IC50). The procedure: The anti-proliferative effect was determined by a water-soluble tetrazolium (WST)-based assay using Cell Counting Kit-8 (CCK-8, #D3100L4057, Shanghai life ilab bio technology co., LTD, China). Cells were seeded in 96-well plates and treated with different concentrations of test articles. […] Each treatment was tested in triplicates. The plate was then cultured at 37° C. with 5% CO2 for 72 hours. At the end of treatments, 20 μl/well of CCK-8 reagent was directly added to each wells. The plate was then incubated at 37° C. with 5% CO2 for 2-4 h. The OD value was detected at 450 nm on a microplate reader (SpectraMax I3X, Molecular Devices, US). IC50 values were calculated with Graphpad Prism 7.0 software using nonlinear regression (curve fitting) type data analysis. For combination effect assay, the cells viability was normalized using the mean OD value of triplicated wells for the single agent control.

In the case of `Cc1ccc(C(=O)Nc2ccc(CN3CCN(C)CC3)c(C(F)(F)F)c2)cc1C#Cc1cnc2[nH]ncc2c1` [HQP1351, 3-(2-(1H-pyrazolo[3,4-b]pyridin-5-yl)ethynyl)-4-methyl-N-(4-((4-methylpiperazin-1-yl)methyl)-3-(trifluoromethyl)phenyl)-benzamide], the GI50 was determined as 217 ± 131 nM.

Source of the values: patent publication US20230404998A1, “Combination Therapies for Treating Cancer” (ASCENTAGE PHARMA (SUZHOU) CO., LTD., priority 2020, published 2023).
